For 1 compound, Ki results are on record in BindingDB's records for PubMed 7523657 (Eli Lilly, 1994).

Experiment [1] concerns the target D(2) dopamine receptor (Rattus norvegicus, UniProt P61169).
The target of experiment [2] is T1, Alpha-1A adrenergic receptor (Rattus norvegicus, UniProt P43140).
T1 sequence (P43140 whole entry): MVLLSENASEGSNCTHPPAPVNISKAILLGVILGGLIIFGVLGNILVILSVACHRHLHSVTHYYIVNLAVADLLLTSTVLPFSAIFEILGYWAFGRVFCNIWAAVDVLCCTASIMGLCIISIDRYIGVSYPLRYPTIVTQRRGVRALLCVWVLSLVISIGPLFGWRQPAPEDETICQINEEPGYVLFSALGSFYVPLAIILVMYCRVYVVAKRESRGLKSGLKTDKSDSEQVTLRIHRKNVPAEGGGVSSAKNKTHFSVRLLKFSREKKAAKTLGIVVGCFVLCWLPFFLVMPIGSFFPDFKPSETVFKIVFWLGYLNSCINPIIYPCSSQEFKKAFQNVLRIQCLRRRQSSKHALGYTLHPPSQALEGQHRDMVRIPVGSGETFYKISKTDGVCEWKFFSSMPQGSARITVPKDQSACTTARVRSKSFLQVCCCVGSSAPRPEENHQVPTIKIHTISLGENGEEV

Experiment [3] deals with T2, Alpha-2C adrenergic receptor (Rattus norvegicus, UniProt P22086).
T2 sequence (P22086 whole entry): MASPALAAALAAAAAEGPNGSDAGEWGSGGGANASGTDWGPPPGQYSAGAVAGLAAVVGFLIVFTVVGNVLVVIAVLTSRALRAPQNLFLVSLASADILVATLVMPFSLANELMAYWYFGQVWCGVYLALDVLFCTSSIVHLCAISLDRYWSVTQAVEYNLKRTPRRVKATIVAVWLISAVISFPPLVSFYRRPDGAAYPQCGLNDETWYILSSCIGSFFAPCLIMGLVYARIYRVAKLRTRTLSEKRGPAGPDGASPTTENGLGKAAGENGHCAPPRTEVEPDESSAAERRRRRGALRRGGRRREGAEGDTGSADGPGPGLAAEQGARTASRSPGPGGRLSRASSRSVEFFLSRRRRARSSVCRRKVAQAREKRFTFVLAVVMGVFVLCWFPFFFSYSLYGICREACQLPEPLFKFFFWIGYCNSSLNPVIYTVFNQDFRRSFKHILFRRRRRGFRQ

Experiment [4] addresses 5-hydroxytryptamine receptor 2A (Rattus norvegicus, UniProt P14842).
Experiment [5] addresses Beta-2 adrenergic receptor (Rattus norvegicus, UniProt P10608).
Experiment [6] concerns the target 5-hydroxytryptamine receptor 1D (Rattus norvegicus, UniProt P28565).
Experiment [7] has as its target T3, Muscarinic acetylcholine receptor M2 (Rattus norvegicus, UniProt P10980).
T3 sequence (P10980 whole entry): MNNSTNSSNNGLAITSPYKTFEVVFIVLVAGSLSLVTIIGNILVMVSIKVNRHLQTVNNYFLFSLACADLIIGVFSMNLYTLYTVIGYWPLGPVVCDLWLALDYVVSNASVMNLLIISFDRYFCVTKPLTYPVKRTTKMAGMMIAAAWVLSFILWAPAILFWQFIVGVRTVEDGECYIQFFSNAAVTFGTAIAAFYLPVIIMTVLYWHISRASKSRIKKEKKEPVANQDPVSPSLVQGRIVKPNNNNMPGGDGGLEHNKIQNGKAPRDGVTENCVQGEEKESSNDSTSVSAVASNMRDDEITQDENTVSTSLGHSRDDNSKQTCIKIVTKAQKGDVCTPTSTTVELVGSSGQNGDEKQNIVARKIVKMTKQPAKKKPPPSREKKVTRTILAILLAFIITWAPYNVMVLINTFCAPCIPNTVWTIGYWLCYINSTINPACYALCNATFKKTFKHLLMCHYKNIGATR

Experiment [8] concerns the target 5-hydroxytryptamine receptor 1B (Rattus norvegicus, UniProt P28564).
The target in experiment [9] is D(1A) dopamine receptor (Rattus norvegicus, UniProt P18901).
D(1A) dopamine receptor, sequence (P18901 whole entry): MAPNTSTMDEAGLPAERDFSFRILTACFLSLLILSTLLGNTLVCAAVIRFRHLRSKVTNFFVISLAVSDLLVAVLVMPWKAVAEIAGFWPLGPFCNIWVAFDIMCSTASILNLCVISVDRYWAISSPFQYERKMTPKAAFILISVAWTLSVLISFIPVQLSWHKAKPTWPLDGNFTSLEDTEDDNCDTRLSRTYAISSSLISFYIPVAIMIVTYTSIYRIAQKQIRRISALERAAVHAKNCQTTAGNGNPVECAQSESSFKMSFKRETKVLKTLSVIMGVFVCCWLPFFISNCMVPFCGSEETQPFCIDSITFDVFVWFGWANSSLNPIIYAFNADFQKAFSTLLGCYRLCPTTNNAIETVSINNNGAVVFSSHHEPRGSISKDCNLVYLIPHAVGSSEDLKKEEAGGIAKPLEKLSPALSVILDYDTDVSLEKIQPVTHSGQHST
Experiment [10] deals with T4, 5-hydroxytryptamine receptor 3A (Rattus norvegicus, UniProt P35563).
T4 sequence (P35563 whole entry): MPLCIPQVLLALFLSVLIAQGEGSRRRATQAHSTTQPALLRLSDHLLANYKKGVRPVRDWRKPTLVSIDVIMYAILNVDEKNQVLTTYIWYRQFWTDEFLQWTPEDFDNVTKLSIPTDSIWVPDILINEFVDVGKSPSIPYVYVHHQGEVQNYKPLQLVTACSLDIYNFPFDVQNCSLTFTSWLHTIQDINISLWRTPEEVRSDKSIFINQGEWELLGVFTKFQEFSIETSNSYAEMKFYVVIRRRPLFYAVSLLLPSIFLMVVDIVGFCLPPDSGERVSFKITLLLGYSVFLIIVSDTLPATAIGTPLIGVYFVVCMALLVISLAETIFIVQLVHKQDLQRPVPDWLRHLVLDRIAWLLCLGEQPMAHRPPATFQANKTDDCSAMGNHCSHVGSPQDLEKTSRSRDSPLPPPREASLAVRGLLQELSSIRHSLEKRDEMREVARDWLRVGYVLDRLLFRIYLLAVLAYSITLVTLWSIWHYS

Experiment [11] has as its target Gamma-aminobutyric acid receptor subunit alpha-1 (Rattus norvegicus, UniProt P62813).
The target of experiment [12] is T5, 5-hydroxytryptamine receptor 2C (Rattus norvegicus, UniProt P08909).
T5 sequence (P08909 whole entry): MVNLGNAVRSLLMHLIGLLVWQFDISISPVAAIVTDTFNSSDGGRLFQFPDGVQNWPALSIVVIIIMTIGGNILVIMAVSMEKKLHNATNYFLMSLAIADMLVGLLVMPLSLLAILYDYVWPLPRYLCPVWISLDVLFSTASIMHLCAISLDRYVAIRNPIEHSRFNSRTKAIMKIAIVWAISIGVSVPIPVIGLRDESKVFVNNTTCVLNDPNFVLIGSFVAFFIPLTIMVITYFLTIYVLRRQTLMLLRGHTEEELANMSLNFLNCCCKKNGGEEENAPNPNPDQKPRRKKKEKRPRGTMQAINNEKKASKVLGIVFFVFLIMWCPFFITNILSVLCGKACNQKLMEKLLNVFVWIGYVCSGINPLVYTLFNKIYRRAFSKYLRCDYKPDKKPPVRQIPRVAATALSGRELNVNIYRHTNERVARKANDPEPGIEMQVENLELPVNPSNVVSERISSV

The target of experiment [13] is Histamine H1 receptor (Rattus norvegicus, UniProt P31390).
Histamine H1 receptor, sequence (P31390 whole entry): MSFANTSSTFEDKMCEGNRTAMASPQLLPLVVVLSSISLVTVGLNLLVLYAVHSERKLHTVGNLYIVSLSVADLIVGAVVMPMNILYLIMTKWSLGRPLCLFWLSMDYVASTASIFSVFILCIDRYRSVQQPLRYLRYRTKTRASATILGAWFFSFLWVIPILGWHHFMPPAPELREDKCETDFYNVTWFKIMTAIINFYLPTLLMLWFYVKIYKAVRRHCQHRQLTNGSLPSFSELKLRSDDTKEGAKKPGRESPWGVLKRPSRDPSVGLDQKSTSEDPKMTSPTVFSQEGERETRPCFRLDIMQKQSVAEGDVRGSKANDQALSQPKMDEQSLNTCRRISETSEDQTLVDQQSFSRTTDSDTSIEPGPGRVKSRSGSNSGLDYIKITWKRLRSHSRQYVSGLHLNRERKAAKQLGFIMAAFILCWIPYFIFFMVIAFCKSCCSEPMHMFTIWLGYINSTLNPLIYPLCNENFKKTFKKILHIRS

D(2) dopamine receptor, sequence (P61169 whole entry): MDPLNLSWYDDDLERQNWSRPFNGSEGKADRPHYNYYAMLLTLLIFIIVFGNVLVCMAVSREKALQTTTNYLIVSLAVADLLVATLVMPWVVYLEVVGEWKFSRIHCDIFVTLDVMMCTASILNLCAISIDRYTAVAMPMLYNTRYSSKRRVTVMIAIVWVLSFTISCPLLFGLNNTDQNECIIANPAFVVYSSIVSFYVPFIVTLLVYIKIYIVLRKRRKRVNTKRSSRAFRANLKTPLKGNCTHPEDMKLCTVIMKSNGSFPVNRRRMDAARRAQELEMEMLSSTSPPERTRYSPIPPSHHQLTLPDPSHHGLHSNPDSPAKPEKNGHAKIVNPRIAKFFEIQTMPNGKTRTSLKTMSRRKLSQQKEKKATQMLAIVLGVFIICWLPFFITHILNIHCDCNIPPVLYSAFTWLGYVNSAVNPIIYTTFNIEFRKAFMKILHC
5-hydroxytryptamine receptor 1B, sequence (P28564 whole entry): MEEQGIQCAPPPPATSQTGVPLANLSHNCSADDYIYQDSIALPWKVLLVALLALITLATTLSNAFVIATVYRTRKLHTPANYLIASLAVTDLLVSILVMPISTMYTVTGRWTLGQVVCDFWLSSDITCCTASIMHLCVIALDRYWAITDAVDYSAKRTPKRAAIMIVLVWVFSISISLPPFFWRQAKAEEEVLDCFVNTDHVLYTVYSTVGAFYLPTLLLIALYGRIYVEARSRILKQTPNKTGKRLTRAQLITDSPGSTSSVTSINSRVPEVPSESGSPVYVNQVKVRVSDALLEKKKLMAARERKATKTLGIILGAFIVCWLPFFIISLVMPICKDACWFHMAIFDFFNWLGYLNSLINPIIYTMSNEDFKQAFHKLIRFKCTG
Gamma-aminobutyric acid receptor subunit alpha-1, sequence (P62813 whole entry): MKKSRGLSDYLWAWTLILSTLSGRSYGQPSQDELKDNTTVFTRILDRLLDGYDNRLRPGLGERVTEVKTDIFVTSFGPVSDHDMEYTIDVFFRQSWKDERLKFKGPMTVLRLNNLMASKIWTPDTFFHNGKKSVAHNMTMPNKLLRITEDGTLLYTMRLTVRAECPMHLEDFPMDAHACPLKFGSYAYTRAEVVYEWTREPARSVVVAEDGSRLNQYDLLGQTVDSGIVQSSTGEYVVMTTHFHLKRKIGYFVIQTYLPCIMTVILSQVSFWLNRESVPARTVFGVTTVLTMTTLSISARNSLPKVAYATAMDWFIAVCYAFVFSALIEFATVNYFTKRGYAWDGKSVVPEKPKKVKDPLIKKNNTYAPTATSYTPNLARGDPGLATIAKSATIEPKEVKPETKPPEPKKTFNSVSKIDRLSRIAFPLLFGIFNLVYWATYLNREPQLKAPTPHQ
5-hydroxytryptamine receptor 2A, sequence (P14842 whole entry): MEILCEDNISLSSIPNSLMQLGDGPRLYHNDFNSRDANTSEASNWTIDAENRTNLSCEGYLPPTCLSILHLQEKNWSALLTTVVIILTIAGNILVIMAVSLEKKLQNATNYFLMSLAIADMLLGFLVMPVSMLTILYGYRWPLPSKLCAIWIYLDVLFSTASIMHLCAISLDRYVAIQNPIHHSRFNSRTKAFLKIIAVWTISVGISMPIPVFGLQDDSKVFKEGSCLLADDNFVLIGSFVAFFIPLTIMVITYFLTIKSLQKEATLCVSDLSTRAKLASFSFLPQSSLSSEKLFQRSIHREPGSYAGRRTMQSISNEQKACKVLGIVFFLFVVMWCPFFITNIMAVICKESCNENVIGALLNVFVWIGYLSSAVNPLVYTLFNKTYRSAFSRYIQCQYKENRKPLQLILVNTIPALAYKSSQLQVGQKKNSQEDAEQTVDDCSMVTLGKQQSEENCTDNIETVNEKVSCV
5-hydroxytryptamine receptor 1D, sequence (P28565 whole entry): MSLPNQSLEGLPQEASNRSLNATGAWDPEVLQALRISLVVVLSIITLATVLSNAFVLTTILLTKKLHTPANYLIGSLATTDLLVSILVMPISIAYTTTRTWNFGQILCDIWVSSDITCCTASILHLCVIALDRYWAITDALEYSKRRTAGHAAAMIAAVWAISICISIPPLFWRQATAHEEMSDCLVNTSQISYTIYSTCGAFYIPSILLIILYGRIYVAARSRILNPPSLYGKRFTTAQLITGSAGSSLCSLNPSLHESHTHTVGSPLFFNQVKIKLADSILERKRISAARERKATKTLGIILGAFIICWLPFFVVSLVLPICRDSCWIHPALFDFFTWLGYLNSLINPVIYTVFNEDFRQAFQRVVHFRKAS
Beta-2 adrenergic receptor, sequence (P10608 whole entry): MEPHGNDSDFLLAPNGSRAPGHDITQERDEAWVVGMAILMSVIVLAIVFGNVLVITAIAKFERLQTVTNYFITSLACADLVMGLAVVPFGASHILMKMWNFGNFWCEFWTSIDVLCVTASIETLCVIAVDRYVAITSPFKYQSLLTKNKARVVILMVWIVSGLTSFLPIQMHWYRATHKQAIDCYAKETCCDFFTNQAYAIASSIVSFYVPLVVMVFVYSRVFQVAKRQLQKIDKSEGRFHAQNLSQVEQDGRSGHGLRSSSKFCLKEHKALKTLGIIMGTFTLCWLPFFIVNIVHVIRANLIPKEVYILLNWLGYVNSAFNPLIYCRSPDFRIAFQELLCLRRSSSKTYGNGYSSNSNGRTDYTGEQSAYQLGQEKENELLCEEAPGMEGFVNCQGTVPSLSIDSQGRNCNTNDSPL

By Ki is commonly meant the equilibrium dissociation constant of an inhibitor or competing ligand from its target. Turning to `CCCN(CCC)C1Cc2c[nH]c3ccc(C(C)=O)c(c23)C1` (stereo not drawn) [LY-293384], the Ki is 1 µM in [1]; 1 µM in experiment [2]; 1 µM in experiment [3]; 1 µM in experiment [4]; 1 µM in [5]; 0.0669 µM in experiment [6]. Also, the Ki in [7], in experiment [8], in [9], in [10], in experiment [11] and in experiment [12] was 1 µM in each case. Besides, the Ki in experiment [13] is 1 µM.
